The values below come from ChEMBL document CHEMBL1144057, “Guiaflavine, a new bisindole quaternary alkaloid from the stem bark of Strychnos guianensis” (J Nat Prod, 1999).

The series concerns Mus musculus. Briefly: Toxicity in ip dosed NMRI mouse. Type of series: organism-based. Particulars: in vivo.

`CCc1c[n+]2c(cc1C1=CN3c4ccccc4[C@@]45CC[N+]6(C)CC7=CCO[C@@H]1[C@@H]([C@H]34)[C@H]7C[C@@H]56)-c1[nH]c3cccc(OC)c3c1CC2.[Cl-].[Cl-]` (stereo partly specified) [GUIAFLAVINE] displayed an LD100 of 100 mg/kg.
